Here are results for two molecules from patent US20130267532A1, “CYCLIC AMIDE COMPOUNDS AND THEIR USE IN THE TREATMENT OF DISEASE” (priority 2010, published 2013).

This experiment addresses T1, hERG current (Homo sapiens, UniProt Q12809).
T1 construct: expressed in transfected cells; host or cells: CHO-K1 cells expressing hERG (Persson et al., J. Cardiovasc. Electrophysiol. 16, 329-341, 2005)
In words: hERG analysis Method 2 (IonWorks HT, CHO cells). Type of experiment: cell-based. The conditions noted are these: hERG-expressing CHO cells, ~21° C., 8-point non-cumulative curves. The procedure:
The hERG-expressing Chinese hamster ovary K1 (CHO) cells described by (Persson, Carlsson, Duker, & Jacobson, 2005) are grown to semi-confluence at 37° C. in a humidified environment (5% CO2) in F-12 Ham medium containing L-glutamine, 10% foetal calf serum (FCS) and 0.6 mg/mL hygromycin (all available from Sigma-Aldrich). Prior to use, the monolayer is washed using a pre-warmed (37° C.) 3 mL aliquot of Versene 1:5,000 (Invitrogen). After aspiration of this solution the flask is incubated at 37° C. in an incubator with a further 2 mL of Versene 1:5,000 for a period of 6 minutes. Cells are then detached from the bottom of the flask by gentle tapping and 10 mL of Dulbecco's Phosphate-Buffered Saline containing calcium (0.9 mM) and magnesium (0.5 mM) (PBS; Invitrogen) is then added to the flask and aspirated into a 15 mL centrifuge tube prior to centrifugation (50 g, for 4 mins). The resulting supernatant is discarded and the pellet gently re-suspended in 3 mL of PBS. A 0.5 mL aliquot of cell suspension is removed and the number of viable cells (based on trypan blue exclusion) is determined in an automated reader (Cedex; Innovatis) so that the cell re-suspension volume can be adjusted with PBS to give the desired final cell concentration. It is the cell concentration at this point in the assay that is quoted when referring to this parameter. […]

T1 sequence (Q12809 whole entry): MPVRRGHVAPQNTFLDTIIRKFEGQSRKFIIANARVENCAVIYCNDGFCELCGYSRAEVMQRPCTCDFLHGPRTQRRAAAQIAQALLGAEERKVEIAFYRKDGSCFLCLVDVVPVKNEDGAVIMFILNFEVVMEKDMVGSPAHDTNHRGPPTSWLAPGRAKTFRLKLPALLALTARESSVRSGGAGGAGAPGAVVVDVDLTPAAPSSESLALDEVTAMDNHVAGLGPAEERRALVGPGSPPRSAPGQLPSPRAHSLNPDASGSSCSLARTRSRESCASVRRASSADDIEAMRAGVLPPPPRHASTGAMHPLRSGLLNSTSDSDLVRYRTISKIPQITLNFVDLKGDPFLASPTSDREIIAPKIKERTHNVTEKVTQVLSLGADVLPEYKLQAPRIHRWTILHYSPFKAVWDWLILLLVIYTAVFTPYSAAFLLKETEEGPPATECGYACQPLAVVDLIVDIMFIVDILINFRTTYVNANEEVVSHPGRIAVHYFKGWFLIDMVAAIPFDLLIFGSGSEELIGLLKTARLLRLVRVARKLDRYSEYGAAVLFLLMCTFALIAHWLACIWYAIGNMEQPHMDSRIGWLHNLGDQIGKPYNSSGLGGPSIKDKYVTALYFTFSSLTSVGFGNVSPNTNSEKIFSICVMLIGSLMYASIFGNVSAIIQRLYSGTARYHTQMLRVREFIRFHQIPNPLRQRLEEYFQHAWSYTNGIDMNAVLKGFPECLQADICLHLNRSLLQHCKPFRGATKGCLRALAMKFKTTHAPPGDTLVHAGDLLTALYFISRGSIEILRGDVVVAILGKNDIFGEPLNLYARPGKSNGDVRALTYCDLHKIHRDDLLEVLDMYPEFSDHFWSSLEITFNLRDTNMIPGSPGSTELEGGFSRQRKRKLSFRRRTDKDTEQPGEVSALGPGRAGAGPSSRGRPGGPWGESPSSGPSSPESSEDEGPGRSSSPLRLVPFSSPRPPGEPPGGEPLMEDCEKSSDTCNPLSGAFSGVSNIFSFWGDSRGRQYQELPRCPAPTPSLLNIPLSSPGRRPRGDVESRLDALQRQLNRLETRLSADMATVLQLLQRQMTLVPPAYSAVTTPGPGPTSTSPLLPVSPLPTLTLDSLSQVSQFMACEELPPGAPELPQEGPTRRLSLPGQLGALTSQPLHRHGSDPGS

A word on the IC50: it is the point on the concentration scale where inhibition reaches its midpoint. High values mean weaker potency in that assay, low ones greater potency in that assay. Molecule `CCCCCNc1nc(N)nc(C)c1Cc1ccc(N2CCN(C)CC2=O)cc1OC` [Example 2, 1-(4-{[2-Amino-4-methyl-6-(pentylamino)pyrimidin-5-yl]methyl}-3-methoxyphenyl)-4-methylpiperazin-2-one] yielded an IC50 of 5.41 µM.

Regarding `CCC[C@@H](CCO)Nc1nc(N)nc(C)c1Cc1ccc(N2CCN(C)CC2=O)cc1OC` [Example 3, (S)-1-(4-{[2-Amino-4-(1-hydroxyhexan-3-ylamino)-6-methylpyrimidin-5-yl]methyl}-3-methoxyphenyl)-4-methylpiperazin-2-one], the IC50 was greater than 33 µM.
